In publication PMC9177545, “3-oxo-C12:2-HSL, quorum sensing molecule from human intestinal microbiota, inhibits pro-inflammatory pathways in immune cells via bitter taste receptors” (Scientific Reports, 2022):

Target: T1, TAS2R138 (Mus musculus, UniProt Q7TQA6)
T1 construct: endogenous in cells; host or cells: RAW264.7 murine macrophages (ATCC)
T1 sequence (Q7TQA6 1-331): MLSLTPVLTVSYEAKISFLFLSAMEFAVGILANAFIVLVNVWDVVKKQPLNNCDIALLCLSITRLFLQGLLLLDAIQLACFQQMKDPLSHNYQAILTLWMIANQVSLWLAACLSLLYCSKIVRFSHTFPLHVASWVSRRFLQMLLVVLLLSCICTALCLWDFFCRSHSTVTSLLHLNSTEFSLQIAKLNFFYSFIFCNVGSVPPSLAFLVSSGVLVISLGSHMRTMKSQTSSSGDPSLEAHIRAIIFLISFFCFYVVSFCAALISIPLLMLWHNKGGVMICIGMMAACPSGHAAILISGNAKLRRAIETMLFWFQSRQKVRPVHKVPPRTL
Assay: TAS2R38/TAS2R138 inhibition experiment: TNFα secretion of RAW264.7 cells pre-treated with probenecid
Assay type: cell-based
Conditions: 1 mM probenecid, one hour before LPS and IFNγ, six hours
Description: In RAW264.7 cells, inflammation was triggered with LPS (10 ng/mL, Sigma) and IFNγ (10 U/mL, R&Dsystems) for 2 h or 6 h, depending on the experiments. PBMC were exposed to LPS (10 ng/mL) and AHL for 24 h. For TAS2R38 inhibition experiments, cells were exposed to TAS2R38 allosteric inhibitor probenecid (1 mM, Sigma) for one hour before adding AHLs and the inflammatory cocktail, without changing the media.
At the end of cell treatment, the medium was centrifuged at 300g for 5 min at 4 °C. Supernatant was frozen at − 80 °C until ELISA assays. TNFα and IL-1β ELISA kits were purchased from R&D systems and performed according to the manufacturer’s instructions. Briefly, plates were coated with a capture antibody and incubated overnight. Wells were blocked using 1% bovine serum albumin-PBS solution (Sigma), then exposed to cell supernatants at room temperature for two hours. Wells were washed and incubated with the detection antibody for an additional two hours. After thorough washing, Streptavidin-HRP solution was added for 20 min. Wells were washed, then incubated with TMB (Biolegend) solution for 20 min and the reaction was stopped using 1 M H2SO4. Absorbance was measured by a spectrometer (FLUOstar Omega; BMG Labtech) at 450 nm and the absorbance at 540 nm was subtracted.

CCCN(CCC)S(=O)(=O)c1ccc(C(=O)O)cc1 [probenecid, reference compound]
effect on TNFα secretion in activated cells cultured in absence of 3-oxo-C12:2-HSL: no effect
